Columns and labels:
[1] = tested on: sows; experiment: Ovulation detection by transrectal ultrasonography (Examples 1-7); type: in vivo, swine; conditions: for OV48 (%): 48 h after treatment, OG, LS means
Protocol: Approximately 120 parity one to seven sows (30 sows within each treatment group) were used to obtain ovulation and reproductive tract data. All sows were of the same genotype (PIC C22). Following 16 to 24 days of lactation, sows were blocked by length of lactation and parity and randomly assigned to one of four treatments: 1) a placebo group, receiving a placebo gel at 96±2 hours post-weaning and a single AI 24 hours later, 2) triptorelin gel at 96±2 hours post-weaning and AI 18 to 20 hours later. 3) triptorelin gel at 96±2 hours post-weaning and AI 24 to 26 hours later, and 4) triptorelin gel at 96±2 hours post-weaning and AI 30 to 32 hours later. The placebo formulation was identical to the active formulation but without the hormone being present. All treatments were deposited into the anterior vagina within 2 cm of the cervix. Follicular development and ovulation was monitored via real time ultrasound at 24, 32, 40, 48, and 56 hours after treatment. Thirty (30) days after insemination, all sows were slaughtered and reproductive tracts obtained. Pregnancy rates and embryo survival were determined. Triptorelin was administered at 96 hours (±2 hr) post-weaning as a single 2 mL dose deposited approximately 1-2 cm posterior to the cervix with a modified artificial insemination catheter. Weaning of sows occurred between 10 a.m. and noon on Day (O). The timing of the insemination for each group of sows was given as directed in the protocol. Those sows scheduled to be inseminated 18 hours following administration of triptorelin were generally inseminated between 6:00 a.m. and 8:00 a.m. the following day, those sows scheduled to be inseminated 24 hours following administration of triptorelin were generally inseminated between noon and 2:00 p.m. the following day and those sows scheduled to be inseminated 30 hours following administration of triptorelin were generally inseminated between 6:00 p.m. and 8:00 p.m. the following day. The single insemination for each sow was performed as they were normally done at the farm. […] Ultrasonography was performed at 24 hr (±1.5 hour) after treatment on Day 5 and again at 8:00 p.m. (±1.5 hour) on Day 5. On Day 6 transrectal ultrasonography was performed at 4:00 a.m. (±1 hour), noon (±1 hr) and 8:00 p.m. (±1 hr) until ovulation was complete or until the 8:00 p.m. ultrasonography on Day 6 (the 56 hour mark from the animals treated at 96 hours post-weaning) whichever came first. An Aloka 500 ultrasound machine was used for this purpose, with a 7.5 MHz linear array transducer attached to a fixed-angle PVC stabilizing rod to facilitate insertion into the rectum. The transducer and PVC rod were coated with a gynecological lubricant and gently inserted into the rectum until the ovaries could be visualized, one at a time. The diameters of the three largest follicles were to be recorded (to the nearest 0.1 mm) at each scanning. A sow was declared to have ovulated when the number of large follicles 6.5 mm) fell to less than 3. […] For all analyses, the models contained the fixed effects of treatment (placebo controls inseminated 24 hours after treatment, triptorelin treated sows inseminated 18 hours after treatment, triptorelin treated sows inseminated 24 hours after treatment and triptorelin treated sows inseminated 30 hours after treatment) and replicate. The records for sow parity and lactation length were included as covariates. First order interaction of treatment and replicate was tested and removed when non-significant. […]

[2] = tested on: sows; experiment: Pregnancy rate and litter size at slaughter 30 days after insemination (Examples 1-7); type: in vivo, swine; conditions: OG, LS means; for Pregnant (%): pregnant at slaughter of all sows allotted
Protocol: Approximately 120 parity one to seven sows (30 sows within each treatment group) were used to obtain ovulation and reproductive tract data. All sows were of the same genotype (PIC C22). Following 16 to 24 days of lactation, sows were blocked by length of lactation and parity and randomly assigned to one of four treatments: 1) a placebo group, receiving a placebo gel at 96±2 hours post-weaning and a single AI 24 hours later, 2) triptorelin gel at 96±2 hours post-weaning and AI 18 to 20 hours later. 3) triptorelin gel at 96±2 hours post-weaning and AI 24 to 26 hours later, and 4) triptorelin gel at 96±2 hours post-weaning and AI 30 to 32 hours later. The placebo formulation was identical to the active formulation but without the hormone being present. All treatments were deposited into the anterior vagina within 2 cm of the cervix. Follicular development and ovulation was monitored via real time ultrasound at 24, 32, 40, 48, and 56 hours after treatment. Thirty (30) days after insemination, all sows were slaughtered and reproductive tracts obtained. Pregnancy rates and embryo survival were determined. Triptorelin was administered at 96 hours (±2 hr) post-weaning as a single 2 mL dose deposited approximately 1-2 cm posterior to the cervix with a modified artificial insemination catheter. Weaning of sows occurred between 10 a.m. and noon on Day (O). The timing of the insemination for each group of sows was given as directed in the protocol. Those sows scheduled to be inseminated 18 hours following administration of triptorelin were generally inseminated between 6:00 a.m. and 8:00 a.m. the following day, those sows scheduled to be inseminated 24 hours following administration of triptorelin were generally inseminated between noon and 2:00 p.m. the following day and those sows scheduled to be inseminated 30 hours following administration of triptorelin were generally inseminated between 6:00 p.m. and 8:00 p.m. the following day. The single insemination for each sow was performed as they were normally done at the farm. […] There was a tendency (p=0.09) for triptorelin treated sows inseminated at 18 hours (12.4 fetuses) and at 24 hours (11.8 fetuses) post treatment to have a higher number of healthy fetuses than triptorelin treated sows inseminated at 30 hours (8.6) post treatment and for vehicle treated sows inseminated at 24 hours (8.6) following treatment. […] For all analyses, the models contained the fixed effects of treatment (placebo controls inseminated 24 hours after treatment, triptorelin treated sows inseminated 18 hours after treatment, triptorelin treated sows inseminated 24 hours after treatment and triptorelin treated sows inseminated 30 hours after treatment) and replicate. The records for sow parity and lactation length were included as covariates. First order interaction of treatment and replicate was tested and removed when non-significant. Differences between treatments were tested on least squares means estimates using the T test at P<0.05.

CC(C)C[C@H](NC(=O)[C@@H](Cc1c[nH]c2ccccc12)NC(=O)[C@H](Cc1ccc(O)cc1)NC(=O)[C@H](CO)NC(=O)[C@H](Cc1c[nH]c2ccccc12)NC(=O)[C@H](Cc1c[nH]cn1)NC(=O)[C@@H]1CCC(=O)N1)C(=O)N[C@@H](CCCNC(=N)N)C(=O)N1CCC[C@H]1C(=O)NCC(N)=O [triptorelin, pGlu-His-Trp-Ser-Tyr-D-Trp-Leu-Arg-Pro-Gly-NH2]
sows ovulating during their most synchronous 24 hr period ([1]; 120 to 144 hr after weaning, triptorelin treated sows): 70-77%
OV48 (%) ([1]; AI 18 h): 74.0%
OV48 (%) ([1]; AI 24 h): 77.0%
OV48 (%) ([1]; AI 30 h): 76.8%
percentage of sows ovulating by 56 hours after treatment ([1]; average of triptorelin treated sows): 80.4%
Number of Healthy Fetuses ([2]; AI 18 h): 12.4
Number of Healthy Fetuses ([2]; AI 24 h): 11.8
Number of Healthy Fetuses ([2]; AI 30 h): 8.6
Pregnant (%) ([2]; AI 18 h): 74.4%
Pregnant (%) ([2]; AI 24 h): 68.1%
Pregnant (%) ([2]; AI 30 h): 62.3%

Source: patent US10668127B2, “Method and composition for synchronizing time of insemination” (UNITED-AH II, LLC, priority 2009, dated 2020)
